Experimental data as given in patent US20220096512A1, “WATER-BASED ANTIFUNGAL COMPOSITIONS” (Sigma-Aldrich Co. LLC, priority 2019, published 2022).
≈ marks a conversion by molar mass, not a printed value.

Tests used:
Aspergillus niger = assay: Diffusion disc MIC testing against Aspergillus niger; assay type: cell-based; conditions: diffusion paper disc, 10 μL applied, incubated overnight at 30° C., average of three experiments
Procedure: (§1) Minimum inhibitory concentration (MIC) testing was determined for the inventive nystatin formulation described herein, along with comparative antifungal agents.
(§2) Nystatin (Solid) and amphotericin were dissolved in DMF in 1 mg/mL. Econazole nitrate was dissolved in PBS to achieve 1 mg/mL. Nystatin formulation diluted with PBS to achieve the same potency as Nystatin (Solid).
(§3) Antibiotic medium 19 was sterilized in autoclave, after sterilization when the temperature lowered to 45° C. and 1 mL from spore suspension was added. 8 mL from this mixture dispensed to each petri dish.
(§4) On each dish 6 sterile diffusion paper disc were placed, 10 μL from each antibiotic were applied in 10, 15, 20, 25, 30, 35 μg/mL concentrations. Where MIC concentrations were below 10, lower concentrations were used: 2, 5, 7.5 μg/mL
(§5) The petri dishes were incubated overnight at 30° C. The MIC were determined as the lower concentration that inhibition could be visualized.

Candida albicans = assay: Diffusion disc MIC testing against Candida albicans; assay type: cell-based; conditions: diffusion paper disc, 10 μL applied, incubated overnight at 30° C., average of three experiments
Procedure: as §1, §2, §3, §4, §5

Row | Compound | MIC (Aspergillus niger; Aspergillus niger, read-out: Inhibition of Aspergillus niger (MIC, lower concentration at which inhibition could be visualized)) | Inhibition of Candida albicans (MIC, lower concentration at which inhibition could be visualized) (Candida albicans) | Inhibition of Aspergillus niger (MIC, lower concentration at which inhibition could be visualized) (Aspergillus niger) | Inhibition of Aspergillus niger (MIC, lower concentration at which inhibition could be visualized) (Aspergillus niger; listed as Nystatin methyl ester)
1 | C[C@@H]1[C@H](O)[C@@H](C)/C=C/C=C/C=C/C=C/C=C/C=C/C=C/[C@H](O[C@@H]2O[C@H](C)[C@@H](O)[C@H](N)[C@@H]2O)C[C@@H]2O[C@](O)(C[C@@H](O)C[C@@H](O)[C@H](O)CC[C@@H](O)C[C@@H](O)CC(=O)O[C@H]1C)C[C@H](O)[C@H]2C(=O)O [Amphotericin, Amphotericin B] | 31.5 µg/mL (≈ 34.1 µM) | – | – | –
2 | Clc1ccc(COC(Cn2ccnc2)c2ccc(Cl)cc2Cl)cc1 (stereo not shown) [Econazole, Econazole nitrate] | – | No inhibition | No inhibition | –
3 | C[C@@H]1[C@H](O)[C@@H](C)/C=C/C=C/CC/C=C/C=C/C=C/C=C/C(O[C@H]2O[C@H](C)[C@@H](O)[C@H](N)[C@@H]2O)CC2O[C@](O)(CC(O)C(O)CCC(O)CC(O)CC(O)CC(=O)O[C@H]1C)CC(O)C2C(=O)O (stereo partly shown) [Nystatin] | – | 14 µg/mL | 22.5 µg/mL | –
4 | Nystatin Methyl ester | – | 30 µg/mL | No inhibition | no observed inhibition
5 | Polymixin B | – | No inhibition | No inhibition | –
